Here are results for 4 compounds from US20240381872A1, “SUBSTITUTED 2,3-DIHYDRO[1,3]THIAZOLO[4,5-B]PYRIDINES, SALTS THEREOF AND THEIR USE AS HERBICIDALLY ACTIVE SUBSTANCES” (BAYER AKTIENGESELLSCHAFT, priority 2021, published 2024).

What all share (format): in vivo
Assay [1] has as its system Alopecurus myosuroides (ALOMY). The assay can be described thus: Herbicidal pre-emergence action, section A (Table A2). The note with it: application rate 1280 g/ha; visual grading after ca. 3 weeks vs untreated controls. The text has this:
(§1) Seeds of mono- and dicotyledonous weed plants were sown in plastic pots (double sowings with one species of mono- and one species of dicotyledonous weed plants per pot), in sandy loam, and covered with soil. The compounds according to the invention, formulated in the form of wettable powders (WP) or as emulsifiable concentrates (EC), were applied to the surface of the covering soil as aqueous suspension or emulsion, with the addition of 0.5% of an additive, at an application rate of 600 l of water per hectare (converted). Following treatment, the pots were placed in a greenhouse and kept under optimum growth conditions for the test plants. The visual grading of the damage to the test plants was carried out after ca. 3 weeks in comparison to untreated controls (herbicidal effect in percent (%): 100% effect=plants have died off, 0% effect=as control plants).

Assay [2] deals with Veronica persica (VERPE). The assay can be described thus: Herbicidal pre-emergence action, section A (Table A10).
Description: as §1

Assay [3] concerns Setaria viridis (SETVI). Kind of assay: Herbicidal pre-emergence action, section A (Table A8). The note with it: for pre-emergence activity against SETVI in %: application rate 1280 g/ha; for pest or weed control at 320 g/ha: Setaria viridis, 504 h, application rate 320 g/ha, read-out: pre-emergence activity against SETVI in %.
Description: as §1

For assay [4], the system named is Kochia scoparia (KCHSC). Kind of assay: Herbicidal post-emergence action, section B (Table B4). The note with it: application rate 1280 g/ha, visual rating about 3 weeks after treatment vs untreated controls. The method, then:
(§2) Seeds of mono- and dicotyledonous weed plants were placed in plastic pots in sandy loam soil (doubly sown with in each case one species of mono- or dicotyledonous weed plants per pot), covered with soil and cultivated in a greenhouse under controlled growth conditions. 2 to 3 weeks after sowing, the test plants were treated at the one-leaf stage. The compounds of the invention, formulated in the form of wettable powders (WP) or as emulsion concentrates (EC), were applied onto the green parts of the plants as aqueous suspension or emulsion with addition of 0.5% additive at a water application rate of 600 liters per hectare (converted). After the test plants had been kept in the greenhouse under optimum growth conditions for about 3 weeks, the activity of the preparations was rated visually in comparison to untreated controls. For example, 100% activity=the plants have died, 0% activity=like control plants.

Assay [5] relates to Stellaria media (STEME). The assay can be described thus: Herbicidal pre-emergence action, section A (Table A9). The note with it: for pest or weed control at 1280 g/ha: Stellaria media, 504 h, application rate 1280 g/ha, read-out: pre-emergence activity against STEME in %.
Description: as §1

For assay [6], the system named is Echinochloa crus-galli (ECHCG). The assay can be described thus: Herbicidal pre-emergence action, section A (Table A3). The note with it: visual grading after ca. 3 weeks vs untreated controls.
Description: as §1

The subject of assay [7] is Digitaria sanguinalis (DIGSA). The assay can be described thus: Herbicidal pre-emergence action, section A (Table A12).
Description: as §1

Assay [8] has as its system Amaranthus retroflexus (AMARE). The assay can be described thus: Herbicidal pre-emergence action, section A (Table A11). The note with it: for pest or weed control at 320 g/ha: Amaranthus retroflexus, 504 h, application rate 320 g/ha, read-out: pre-emergence activity against AMARE in %.
Description: as §1

Another assay deals with Poa annua (POAAN). Kind of assay: Herbicidal pre-emergence action, section A (Table A7). The note with it: application rate 320 g/ha, visual grading after ca. 3 weeks vs untreated controls; for pest or weed control at 320 g/ha: Poa annua, pre-emergence, 504 h, read-out: pre-emergence activity against POAAN in %.
Description: as §1

The subject of assay [9] is Veronica persica (VERPE). Kind of assay: Herbicidal post-emergence action, section B (Table B10). The note with it: Veronica persica, post-emergence, 504 h; application rate 1280 g/ha; visual rating about 3 weeks after treatment vs untreated controls; read-out: post-emergence activity against VERPE in %. Here is the method:
as §2

The next assay relates to Lolium rigidum (LOLRI). Kind of assay: Herbicidal pre-emergence action, section A (Table A5). The settings on record: application rate 1280 g/ha, visual grading after ca. 3 weeks vs untreated controls; for pest or weed control at 1280 g/ha: Lolium rigidum, pre-emergence, 504 h, read-out: pre-emergence activity against LOLRI in %.
Description: as §1

For assay [10], the system named is Echinochloa crus-galli (ECHCG). Kind of assay: Herbicidal post-emergence action, section B (Table B3). The note with it: application rate 1280 g/ha, rated visually after about 3 weeks. The method, then:
as §2

Assay [11] relates to Kochia scoparia (KCHSC). Kind of assay: Herbicidal pre-emergence action, section A (Table A4). The note with it: application rate 320 g/ha, visual grading after ca. 3 weeks vs untreated controls.
Description: as §1

The test system of assay [12] is Matricaria inodora (MATIN). The assay can be described thus: Herbicidal pre-emergence action, section A (Table A6). The note with it: application rate 1280 g/ha, visual grading after ca. 3 weeks vs untreated controls.
Description: as §1

The test system of assay [13] is Stellaria media (STEME). The assay can be described thus: Herbicidal post-emergence action, section B (Table B9). The note with it: application rate 1280 g/ha, visual rating about 3 weeks after treatment vs untreated controls. The method, then:
as §2

Assay [14] has as its system Amaranthus retroflexus (AMARE). Kind of assay: Herbicidal post-emergence action, section B (Table B11). The note with it: Amaranthus retroflexus, post-emergence, 504 h; application rate 1280 g/ha; visual rating about 3 weeks after treatment vs untreated controls; read-out: post-emergence activity against AMARE in %. The method, then:
as §2

For assay [15], the system named is Setaria viridis (SETVI). Kind of assay: Herbicidal post-emergence action, section B (Table B8). The settings on record: Setaria viridis, post-emergence, 504 h; application rate 1280 g/ha; visual rating about 3 weeks after treatment vs untreated controls; read-out: post-emergence activity against SETVI in %. Here is the method:
as §2

For the compound `CS(=O)(=O)N1CSc2cc(Br)c(-c3cccc(Cl)c3F)nc21` [Example I-116], the “pre-emergence activity against ALOMY in %” value in assay [1] came to 90%. For the same compound, the “pre-emergence activity against VERPE in %” value with Veronica persica (VERPE) [2] (application rate 1280 g/ha) came to 90%. In the assay on Setaria viridis (SETVI) [3], the “pre-emergence activity against SETVI in %” value was determined as 90%. Further, in the assay with Kochia scoparia (KCHSC) [4], the “post-emergence activity against KCHSC in %” value was 90%.

As to `Cc1ccccc1-c1nc2c(cc1C)[S+]([O-])CN2C(=O)C1CC1` (stereo not shown) [Example I-063], the pest or weed control at 1280 g/ha amounted to 90% in the assay with Stellaria media (STEME) [5]; 100% in [6] (Echinochloa crus-galli, pre-emergence, 504 h, application rate 1280 g/ha, read-out: pre-emergence activity against ECHCG in %); 90% in the assay with Veronica persica (VERPE) [2] (Veronica persica, 504 h, application rate 1280 g/ha, read-out: pre-emergence activity against VERPE in %); 100% in assay [7] (Digitaria sanguinalis, 504 h, application rate 1280 g/ha, read-out: pre-emergence activity against DIGSA in %); 90% in the assay on Veronica persica (VERPE) [9]; 100% in the assay with Lolium rigidum (LOLRI). Moreover, the pest or weed control at 1280 g/ha in the assay on Kochia scoparia (KCHSC) [4] (Bassia scoparia, post-emergence, 504 h, read-out: post-emergence activity against KCHSC in %) was 90%. Further, the pest or weed control at 320 g/ha was determined as 100% with Setaria viridis (SETVI) [3], 90% in assay [8] and 100% in the assay with Poa annua (POAAN).

As to `CCCS(=O)(=O)N1CSc2cc(C)c(-c3cccc(F)c3F)nc21` [Example I-145], in assay [10], the “post-emergence activity against ECHCG in %” value stood at 90%. In addition, the “pre-emergence activity against STEME in %” value in the assay with Stellaria media (STEME) [5] (application rate 320 g/ha) worked out at 90%. Further, the “pre-emergence activity against ALOMY in %” value in assay [1] came out at 90%. Also, the “pre-emergence activity against KCHSC in %” value in the assay on Kochia scoparia (KCHSC) [11] is on record as 90%. Moreover, the “pre-emergence activity against MATIN in %” value in assay [12] stood at 90%. Further, in assay [6] (application rate 1280 g/ha), the “pre-emergence activity against ECHCG in %” value came out at 100%. Also, in the assay on Veronica persica (VERPE) [2] (application rate 1280 g/ha), the “pre-emergence activity against VERPE in %” value was 90%. The “pre-emergence activity against DIGSA in %” value in assay [7] (application rate 1280 g/ha) was 100%. The “pre-emergence activity against SETVI in %” value with Setaria viridis (SETVI) [3] worked out at 100%. Also, the “post-emergence activity against STEME in %” value in the assay on Stellaria media (STEME) [13] is 90%. Also, the “pre-emergence activity against AMARE in %” value in assay [8] (application rate 1280 g/ha) is on record as 90%. In addition, the “pre-emergence activity against POAAN in %” value in the assay on Poa annua (POAAN) amounted to 100%. For the same compound, the “pre-emergence activity against LOLRI in %” value in the assay on Lolium rigidum (LOLRI) worked out at 100%.

Turning to `Cc1cc2c(nc1-c1cccc(F)c1F)N(S(C)(=O)=O)CS2` [Example I-147, 5-(2,3-difluorophenyl)-6-methyl-3-(methylsulfonyl)-2,3-dihydro[1,3]thiazolo[4,5-b]pyridine], the pest or weed control at 1280 g/ha in the assay on Stellaria media (STEME) [5] was 90%; in assay [12] (Tripleurospermum inodorum, pre-emergence, 504 h, read-out: pre-emergence activity against MATIN in %), 90%; in the assay on Stellaria media (STEME) [13] (Stellaria media, post-emergence, 504 h, read-out: post-emergence activity against STEME in %) it was 90%; in the assay on Lolium rigidum (LOLRI), 90%; in assay [14] it was 90%; with Setaria viridis (SETVI) [15], 90%. Besides, the pest or weed control at 320 g/ha came out at 90% in the assay on Kochia scoparia (KCHSC) [11] (Bassia scoparia, pre-emergence, 504 h, read-out: pre-emergence activity against KCHSC in %); 100% in assay [6] (Echinochloa crus-galli, pre-emergence, 504 h, application rate 320 g/ha, read-out: pre-emergence activity against ECHCG in %); 90% in the assay on Veronica persica (VERPE) [2] (Veronica persica, 504 h, application rate 320 g/ha, read-out: pre-emergence activity against VERPE in %); 90% in assay [7] (Digitaria sanguinalis, 504 h, application rate 320 g/ha, read-out: pre-emergence activity against DIGSA in %); 100% in the assay with Setaria viridis (SETVI) [3]; 90% in assay [8]. Moreover, the pest or weed control at 320 g/ha in the assay on Poa annua (POAAN) was determined as 100%.
